Experimental data reported in patent US6664271B1, “Immunopotentiator agents” (Eli Lilly and Company, priority 1999, dated 2003).
Marks after values point to notes of the source that are not given here.

Columns and labels:
mononuclear leukocytes [1] = experiment: mammalian T-lymphocyte blastogenesis assay, bovine (Example 75); format: cell-based
Protocol: (§1) The compound prepared in Example 30, namely (S)-ethyl 1-(2-thiopheneacetyl)-3-peridinecarboxylate, was further evaluated for in vitro T-lymphocyte blastogenic activity from mammalian species other than avian.
(§2) The mammalian blastogenesis assays were conducted with the same protocol as the vian assays with the following exceptions:
(§3) 1. Only mononuclear leukocytes are used for the mammalian assay. The cells are obtained from whole blood by differential centrifugation using Histopague 1.077 (Sigma Chemical Company, St. Louis, Mo).
(§4) 2. 0.5% Fetal Bovine Serum (FBS) [GIBCOBRL, Grand Island N.Y.] is added to RPMI 1640 medium. Exception: Non-human primate plasma is used instead of FBS at 5 ml/liter to RPMI 1640 medium.
(§5) 3. 5×10^5 cells/well were used with the mammalian assays.

mononuclear leukocytes [2] = experiment: mammalian T-lymphocyte blastogenesis assay, canine (Example 75); format: cell-based
Protocol: as §1, §2, §3, §4, §5

mononuclear leukocytes [3] = experiment: mammalian T-lymphocyte blastogenesis assay, non-human primate (Example 75); format: cell-based
Protocol: as §1, §2, §3, §4, §5

mononuclear leukocytes [4] = experiment: mammalian T-lymphocyte blastogenesis assay, porcine (Example 75); format: cell-based
Protocol: as §1, §2, §3, §4, §5

[5] = system: Actinobacillus pleuropneumoniae (App) 92C; experiment: Seeder Pig Infection Model (Example 76); format: in vivo; settings: contact pigs
From the text: The compound prepared in Example 30, namely (S)-ethyl 1-(2-thiopheneacetyl)-3-piperidinecarboxylate, was utilized in a test formulation to investigate its efficacy to prevent or control the horizontal transmission of Actinobacillus pleuropneumoniae (App) 92C in a Seeder Pig Infection Model. The seeder pig model was chosen for the efficacy evaluation of the immunopotentiator compounds and analogs to prevent or control disease caused by App in recently weaned pigs. This model mimics a field outbreak of pneumonia in nursery pigs.
The animals tested were purchased from a commercial herd source known to be free of obvious disease and not recently on medication. There were a total of seventy-two (72) pigs, recently weaned and weighing in the approximate range of 15-20 pounds (6.8-9.1 kg). The challenged pigs were infected with an intranasal inoculation of Actinobacillus pleuropneumoniae (App), lyophilized #92C, a serotype 1, Iowa strain. The challenge material was a saline suspension containing a 2.5 hour log-phase growth broth culture, centrifuged and reconstituted at a concentration that contains 3×10^7 App 92C colony forming units (CFU) per pig in a 4 ml dose. An approved Animal Use Protocol governed the conduct of this trial.
Upon arrival, the pigs were double ear-tagged and divided into contact (48) and seeder (24) pig/groups. The seeder pigs were placed in two (2) groups of twelve (12) pigs per room (Groups 1). The contact pigs were placed in (8) groups of six (6) pigs per room (Groups 2-9). Lilly swine ration, AP11 SW and water were available ad libitum. All animals were observed daily and a room record was recorded.
Day −5 Pigs arrive for the acclimation period of a minimum of 5 days.
Day 0 Daily individual observations of clinical impression signs begin and continue throughout the experiment. These were scored on a 0 to 3 scale (0=normal: alert, responsive; 1=slight: dyspnea, rough coat, slow to react; 2=moderate: lethargic, rough coat, breathing difficulty; 3=severe: unresponsive, breathing distress (open mouth).
Day 0 Individual animal weights of the contacts were taken.
Day 0 2 hours prior to infection of the seeder pigs, the contact pigs were injected via the intraperitoneal route with the test formulations. Two (2) rooms of six (6) pigs were treated with each of the following dose levels: 0 μg/pig, 125 μg/pig, 250 μg/pig, and 500 μg/pig.
Day 0 Twenty-four (24) seeder pigs were challenged with a dose containing […] CFU of Actinobacillus pleuropneumoniae (App) 92C inoculum. The infected seeder pigs were then placed, 3 pigs per room, with the 6 treated contact pigs. To maximize the horizontal transmission of App, the living space in the rooms was reduced from 120 sq. ft. to 60 sq. ft., by placing partitions in the rooms.
Day +3 to +5 The seeder pigs were removed from all rooms. The pigs were euthanized, lung pathology was determined and lung cultures were taken. Moribund animals were euthanized. Any animals that succumbed to infection while on test were necropsied, lung lesions were scored and a sample was taken for bacterial isolation.
Day +14 The experiment was terminated. The contact pigs (Groups 2-9) were weighed, euthanized, and necropsied, with lung lesion scoring and bacterial culture assessment.
The test formulations were in an Acetate Buffered Saline vehicle. Samples were analyzed for potency. Data obtained was analyzed for weight gain, mortality, clinical impression scores, lung lesions, and bacteriologic recovery. Statistics were performed as appropriate to detect differences between groups.

E. coli = experiment: colibacillosis infection model in broiler chickens, Trial B (Example 78); format: in vivo, chicken

Question: For `CCOC(=O)[C@H]1CCCN(C(=O)Cc2cccs2)C1` [Example 30, (S)-Ethyl 1-(2-Thiopheneacetyl)-3-piperidinecarboxylate], which MSC (mononuclear leukocytes [1]) is on record?
Answer: Its MSC is 10 μg μg/ml.

Question: What about the MTC (mononuclear leukocytes [1]) of the same compound?
Answer: The MTC was 1 mg/mL.

Question: What about the MSC (mononuclear leukocytes [2]) of the same compound?
Answer: Its MSC is 1 μg μg/ml.

Question: What about the MTC (mononuclear leukocytes [2]) of the same compound?
Answer: The MTC was 100 µg/mL.

Question: And the MSC (mononuclear leukocytes [3])?
Answer: Its MSC is 10 μg μg/ml.

Question: What about the MTC (mononuclear leukocytes [3]) of the same compound?
Answer: Its MTC is 1 mg/mL.

Question: And the MSC (mononuclear leukocytes [4])?
Answer: The MSC was 10 μg μg/ml.

Question: And the MTC (mononuclear leukocytes [4])?
Answer: Its MTC is 1 mg/mL.

Question: What about the “% Lung Consolidation” value ([5]; 125 μg/pig intraperitoneal) of the same compound?
Answer: The value was 14.0%.

Question: What about the “% Lung Lesions” value ([5]; 125 μg/pig intraperitoneal) of the same compound?
Answer: Its value is 41.5%.

Question: What about the “% Mortality” value ([5]; 125 μg/pig intraperitoneal) of the same compound?
Answer: Its value is 16.6%.

Question: What about the “App Reisolation” value ([5]; 125 μg/pig intraperitoneal) of the same compound?
Answer: The value was 41.5.

Question: And the “% Lung Consolidation” value ([5]; 250 μg/pig intraperitoneal)?
Answer: The value was 0.44%.

Question: What about the “% Lung Lesions” value ([5]; 250 μg/pig intraperitoneal) of the same compound?
Answer: The value was 0* %.

Question: And the “% Mortality” value ([5]; 250 μg/pig intraperitoneal)?
Answer: The value was 0%.

Question: What about the “App Reisolation” value ([5]; 250 μg/pig intraperitoneal) of the same compound?
Answer: Its value is 0*.

Question: What about the “% Lung Consolidation” value ([5]; 500 μg/pig intraperitoneal) of the same compound?
Answer: The value was 4.0%.

Question: And the “% Lung Lesions” value ([5]; 500 μg/pig intraperitoneal)?
Answer: Its value is 42.0%.

Question: And the “% Mortality” value ([5]; 500 μg/pig intraperitoneal)?
Answer: The value was 0%.

Question: And the “App Reisolation” value ([5]; 500 μg/pig intraperitoneal)?
Answer: The value was 42.

Question: And the “% Colibacillosis-associated Mortality” value (E. coli; 2 μg/chick subcutaneous)?
Answer: Its value is 5%.

Question: What about the “Average Weight Gain/Bird (lbs)” value (E. coli; 2 μg/chick subcutaneous) of the same compound?
Answer: The value was 2.53 lb (1.15 kg).

Question: And the Feed/Gain (E. coli; 2 μg/chick subcutaneous)?
Answer: The Feed/Gain was 1.56.

Question: And the “% Colibacillosis-associated Mortality” value (E. coli; 12.5 μg/chick subcutaneous)?
Answer: The value was 2.8* %.

Question: And the “% Total Mortality” value (E. coli; 12.5 μg/chick subcutaneous)?
Answer: Its value is 10* %.

Question: What about the “Average Weight Gain/Bird (lbs)” value (E. coli; 12.5 μg/chick subcutaneous) of the same compound?
Answer: Its value is 2.44 lb (1.11 kg).

Question: And the Feed/Gain (E. coli; 12.5 μg/chick subcutaneous)?
Answer: Its Feed/Gain is 1.59.

Question: What about the “% Colibacillosis-associated Mortality” value (E. coli; 25 μg/chick subcutaneous) of the same compound?
Answer: Its value is 6.8%.

Question: And the “% Total Mortality” value (E. coli; 25 μg/chick subcutaneous)?
Answer: Its value is 14.3%.

Question: And the “Average Weight Gain/Bird (lbs)” value (E. coli; 25 μg/chick subcutaneous)?
Answer: The value was 2.49 lb (1.13 kg).

Question: What about the Feed/Gain (E. coli; 25 μg/chick subcutaneous) of the same compound?
Answer: The Feed/Gain was 1.57.
